In patent US20240376111A1, “COMPOSITIONS AND METHODS OF USING THE SAME FOR TREATMENT OF NEURODEGENERATIVE AND MITOCHONDRIAL DISEASE” (Mitokinin, Inc., priority 2021, published 2024):
Like-named read-outs stand apart in the source and are kept apart here.

Tests used:
[1] = test system: SKOV3 cells; experiment: In vitro mitosafety (glucose/galactose) assay; details: highest mito-safe dose = highest concentration at which gal/glc>0.80 (IC20) in SKOV3 cells, divided by mt-Keima EC50
Description: (§1) Briefly, SKOV3 cells (ATCC HTB-77) were plated in DMEM (Corning 10-013-CV) medium containing 25 mM glucose or DMEM with no glucose (Gibco 11966-025) supplemented with 10 mM galactose at 9,000 cells/well in 96 well plates (Corning costar 3610). 24 hrs later, compounds, in DMSO, were added at various concentrations to a final 0.1% DMSO for all wells. […] After a 15 minute incubation cellular ATP levels were read out using a Promega GloMax® DiscoverMicroplate Reader.
(§2) The ratio of relative CellTiter-Glo values from cells grown in galactose to cells grown in glucose was determined (gal/glc ratio). The gal/glc ratio vs concentration is then graphed, and non-linear regression is used to find the highest concentration of MTK compound at which gal/glc>0.80 (the “highest mito-safe dose”, or IC20).

[2] = test system: pS129 α-synuclein in mouse primary neurons treated with α-synuclein PFFs; experiment: In vitro primary neuron α-synuclein pre-formed fibril (PFF) model; assay type: cell-based; details: increasing doses, Western blot of insoluble fraction of lysates
Description: Primary hippocampal neurons were derived following standard protocols, and treated with sonicated PFFs according to the methods in Volpicelli-Daley et al (Methods Mol Biol 2019). Following addition of PFFs or PBS on DIV7, Mitokinin compound or vehicle control was added on DIV9 and DIV12. At DIV14, cultures were harvested for biochemical analysis using either whole cell lysis buffer or fractionation buffer containing NP-40.
For whole cell lysates, cultures were collected in WC lysis buffer [100 mM Bicine pH 8.0, 0.27M Sucrose (Sigma S-1888, FW: 342.3), 1 mM EDTA, 1 mM EGTA, 5 mM Na4P2O7 (ESB422, MW 446.06 g/mol), 100 mM Tris pH 7.5, 1% Triton X-100, 1× Halt™ Protease and Phosphatase Inhibitor Cocktail, with Benzonase (1:1000)]. Samples were incubated on ice for 30 min, sonicated, and then cleared by centrifugation at 18,000 g for 20 min at 4° C. Supernatant protein concentration was determined by BCA assay, and samples were analyzed by western blot using commercially available antibodies. Neuronal health markers included NfL, total caspase-3, cleaved caspase-3, pS65 Ub, LC3, TUJ1, and actin.
For fractionation, cells were collected in NP-40 lysis buffer (containing 10 mM Tris-HCl, pH 7.4, 150 mM NaCl, 5 mM EDTA, 0.5% Nonidet P-40, 1× Halt™ Protease and Phosphatase Inhibitor Cocktail, with Benzonase (1:1000). Following differential centrifugation at 22,000 g for 20 min at 4° C., the NP-40 insoluble pellet was resuspended in SDS-Brain lysis buffer (containing 10 mM Tris-HCl, pH 7.4, 150 mM NaCl, 5 mM EDTA, 0.5% Nonidet P-40, 1% SDS, 0.5% sodium deoxycholate, 1× Halt™ Protease and Phosphatase Inhibitor Cocktail, with Benzonase (1:1000) and sonicated. Protein concentrations were determined using the BCA assay and samples were analyzed for pS129 α-synuclein and total α-synuclein levels by western blot.

[3] = test system: HeLa cells expressing mt-Keima and YFP-Parkin (HeLa MKYP); experiment: Human mt-Keima mitophagy assay; assay type: cell-based; details: HeLa MKYP cells, 16 hrs with compound, then 1 uM FCCP/oligomycin for 6 hours, FACS, read-out: EC50 in HeLa mt-Keima Mitophagy Assay
Description: Briefly, HeLa cells expressing mt-Keima and YFP-Parkin (HeLa MKYP) were plated at 10,000 cells/well in 96 well plates along with compounds at various concentrations. Following 16 hrs of incubation, cells were treated with 1 uM FCCP/oligomycin for 6 hours, then analyzed via FACS for the presence of mitochondria in lysosomes (as determined by an emissions spectrum shift from the pH-sensitive mt-Keima tag).

[4] = test system: SKOV3 cells
Description: as §1, §2

Compound	Mito-Safety Index (highest mito-safe dose/mt-Keima EC50) [1]	pS129 α-synuclein [2]	EC50 ([3]; Homo sapiens)	Mito-Safety Index (highest mito-safe dose/mt-Keima EC50) [4]	EC50 [3]
COCCO[C@H]1COc2ccccc2[C@@H]1Nc1ncnc2[nH]c(C3CC3)cc12 [EP-0041944, 6-cyclopropyl-N-[(3R,4S)-3-(2-methoxyethoxy)chroman-4-yl]-7H-pyrrolo[2,3-d]pyrimidin-4-amine]	45.94	significantly reduces	130 nM	–	–
CC(C)(F)CO[C@H]1COc2ccccc2[C@@H]1Nc1ncnc2[nH]c(C3CC3)cc12 [EP-0043180, 6-cyclopropyl-N-[(3R,4S)-3-(2-fluoro-2-methyl-propoxy)chroman-4-yl]-7H-pyrrolo[2,3-d]pyrimidin-4-amine]	168.02	significantly reduces	149 nM	–	–
N-[(3R,4,S)-3-(2-methoxyethoxy)chroman-4-yl]-6-(trifluoromethyl)-7H-pyrrolo[2,3-d]pyrimidin-4-amine [EP-0042319]	–	significantly reduces	–	74.75	246 nM
